# Test results as given in PubChem BioAssay AID1963435 (Molecular Pharmacology Branch, DTP, NCI, 2024).
# System: PANC-1 complex spheroid growth, percent test/control
# Experiment: Anticancer human tumor PANC-1 cell line growth inhibition [Asc];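 also: spheroids exposed to agents for 7 days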;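 as to viability, T/C: percent viability relative to DMSO vehicle wells taken as 100%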
# Details: for IC50: curve of first compound; for viability, T/C: stronger effect = lower value
# Summary of the method: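 Stromal components (HUVEC and hMSC) are co-assembled with the cancer cells into multicellular spheroids. Drugs are then added singly or paired, at concentrations falling by half-log increments from a clinically achievable maximum, capped at 10 microM without known Cmax.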
# [1] = second compound 0.00949 µM, first compound 0.0316 µM
# [2] = second compound 0.00949 µM, first compound 0.1 µM
# [3] = second compound 0.03 µM, first compound 0.0316 µM
# [4] = second compound 0.03 µM, first compound 0.1 µM
# [5] = second compound 0.0949 µM, first compound 0.0316 µM
# [6] = second compound 0.0949 µM, first compound 0.1 µM
# [7] = second compound 0.3 µM, first compound 0.0316 µM
# [8] = second compound 0.3 µM, first compound 0.1 µM
# [9] = second compound 0.949 µM, first compound 0.0316 µM
# [10] = second compound 0.949 µM, first compound 0.1 µM
# [11] = second compound 3 µM, first compound 0.0316 µM
# [12] = second compound 3 µM, first compound 0.1 µM
compound,measurement,setting,value
C=C(F)C(=O)N1CCN(c2nc(OCC3CCCN3C)nc3c2CCN(c2cccc4cccc(Cl)c24)C3)CC1CC#N (centres undefined) + CCN1C(C(=O)NC23CCC(C(=O)O)(CC2)CC3)C(c2cccc(Cl)c2F)C2(C(=O)Nc3cc(Cl)ccc32)C12CCCCC2,IC50,second compound 0.00949 µM,7.22 µM
same,IC50,second compound 0.03 µM,6.88 µM
same,IC50,second compound 0.0949 µM,6.94 µM
same,IC50,second compound 0.3 µM,7.25 µM
same,IC50,second compound 0.949 µM,7.02 µM
same,IC50,second compound 3 µM,7.78 µM
same,"viability, T/C",[1],99%
same,"viability, T/C",[2],89.5%
same,"viability, T/C","second compound 0.00949 µM, first compound 0.316 µM",88.4%
same,"viability, T/C","second compound 0.00949 µM, first compound 1 µM",98.5%
same,"viability, T/C","second compound 0.00949 µM, first compound 3.16 µM",105%
same,"viability, T/C","second compound 0.00949 µM, first compound 10 µM",31.7%
same,"viability, T/C",[3],103%
same,"viability, T/C",[4],96.7%
same,"viability, T/C","second compound 0.03 µM, first compound 0.316 µM",97%
same,"viability, T/C","second compound 0.03 µM, first compound 1 µM",97.7%
same,"viability, T/C","second compound 0.03 µM, first compound 3.16 µM",88%
same,"viability, T/C","second compound 0.03 µM, first compound 10 µM",31.6%
same,"viability, T/C",[5],105%
same,"viability, T/C",[6],102%
same,"viability, T/C","second compound 0.0949 µM, first compound 0.316 µM",108%
same,"viability, T/C","second compound 0.0949 µM, first compound 1 µM",109%
same,"viability, T/C","second compound 0.0949 µM, first compound 3.16 µM",106%
same,"viability, T/C","second compound 0.0949 µM, first compound 10 µM",24.1%
same,"viability, T/C",[7],99.5%
same,"viability, T/C",[8],93.1%
same,"viability, T/C","second compound 0.3 µM, first compound 0.316 µM",103%
same,"viability, T/C","second compound 0.3 µM, first compound 1 µM",108%
same,"viability, T/C","second compound 0.3 µM, first compound 3.16 µM",100%
same,"viability, T/C","second compound 0.3 µM, first compound 10 µM",30.5%
same,"viability, T/C",[9],117%
same,"viability, T/C",[10],104%
same,"viability, T/C","second compound 0.949 µM, first compound 0.316 µM",114%
same,"viability, T/C","second compound 0.949 µM, first compound 1 µM",109%
same,"viability, T/C","second compound 0.949 µM, first compound 3.16 µM",97.1%
same,"viability, T/C","second compound 0.949 µM, first compound 10 µM",28.9%
same,"viability, T/C",[11],112%
same,"viability, T/C",[12],108%
same,"viability, T/C","second compound 3 µM, first compound 0.316 µM",115%
same,"viability, T/C","second compound 3 µM, first compound 1 µM",126%
same,"viability, T/C","second compound 3 µM, first compound 3.16 µM",96.7%
same,"viability, T/C","second compound 3 µM, first compound 10 µM",37%
Cn1ncnc1[C@H]1c2n[nH]c(=O)c3cc(F)cc(c23)N[C@@H]1c1ccc(F)cc1 + CCN1C(C(=O)NC23CCC(C(=O)O)(CC2)CC3)C(c2cccc(Cl)c2F)C2(C(=O)Nc3cc(Cl)ccc32)C12CCCCC2,IC50,second compound 0.00949 µM,> 0.1 µM
same,IC50,second compound 0.03 µM,> 0.1 µM
same,IC50,second compound 0.0949 µM,> 0.1 µM
same,IC50,second compound 0.3 µM,> 0.1 µM
same,IC50,second compound 0.949 µM,> 0.1 µM
same,IC50,second compound 3 µM,> 0.1 µM
same,"viability, T/C","second compound 0.00949 µM, first compound 0.000316 µM",101%
same,"viability, T/C","second compound 0.00949 µM, first compound 0.001 µM",89.6%
same,"viability, T/C","second compound 0.00949 µM, first compound 0.00316 µM",97.4%
same,"viability, T/C","second compound 0.00949 µM, first compound 0.01 µM",96.7%
same,"viability, T/C",[1],111%
same,"viability, T/C",[2],113%
same,"viability, T/C","second compound 0.03 µM, first compound 0.000316 µM",107%
same,"viability, T/C","second compound 0.03 µM, first compound 0.001 µM",89.5%
same,"viability, T/C","second compound 0.03 µM, first compound 0.00316 µM",98.4%
same,"viability, T/C","second compound 0.03 µM, first compound 0.01 µM",98.9%
same,"viability, T/C",[3],109%
same,"viability, T/C",[4],101%
same,"viability, T/C","second compound 0.0949 µM, first compound 0.000316 µM",93.4%
same,"viability, T/C","second compound 0.0949 µM, first compound 0.001 µM",98.1%
same,"viability, T/C","second compound 0.0949 µM, first compound 0.00316 µM",103%
same,"viability, T/C","second compound 0.0949 µM, first compound 0.01 µM",94.2%
same,"viability, T/C",[5],108%
same,"viability, T/C",[6],102%
same,"viability, T/C","second compound 0.3 µM, first compound 0.000316 µM",98.8%
same,"viability, T/C","second compound 0.3 µM, first compound 0.001 µM",96.2%
same,"viability, T/C","second compound 0.3 µM, first compound 0.00316 µM",109%
same,"viability, T/C","second compound 0.3 µM, first compound 0.01 µM",101%
same,"viability, T/C",[7],110%
same,"viability, T/C",[8],106%
same,"viability, T/C","second compound 0.949 µM, first compound 0.000316 µM",111%
same,"viability, T/C","second compound 0.949 µM, first compound 0.001 µM",117%
same,"viability, T/C","second compound 0.949 µM, first compound 0.00316 µM",106%
same,"viability, T/C","second compound 0.949 µM, first compound 0.01 µM",107%
same,"viability, T/C",[9],105%
same,"viability, T/C",[10],114%
same,"viability, T/C","second compound 3 µM, first compound 0.000316 µM",109%
same,"viability, T/C","second compound 3 µM, first compound 0.001 µM",123%
same,"viability, T/C","second compound 3 µM, first compound 0.00316 µM",124%
same,"viability, T/C","second compound 3 µM, first compound 0.01 µM",116%
same,"viability, T/C",[11],125%
same,"viability, T/C",[12],106%
